Test results published in ChEMBL document CHEMBL5212743, “Selectivity Literature for EUbOPEN Chemogenomics Library wave 3” (2023).
pKi: −log10 of the molar value. Values belong to the compound of their own block, whether it stands above or below them.

Legend:
[1] = target: T1, Serine/threonine-protein kinase TAO3 (Homo sapiens) (UniProt Q9H2K8); assay: Selectivity interaction (KinomeScan (DiscoverX)) EUB0000306b TAOK3; details: at 1 µM
T1 sequence (whole entry): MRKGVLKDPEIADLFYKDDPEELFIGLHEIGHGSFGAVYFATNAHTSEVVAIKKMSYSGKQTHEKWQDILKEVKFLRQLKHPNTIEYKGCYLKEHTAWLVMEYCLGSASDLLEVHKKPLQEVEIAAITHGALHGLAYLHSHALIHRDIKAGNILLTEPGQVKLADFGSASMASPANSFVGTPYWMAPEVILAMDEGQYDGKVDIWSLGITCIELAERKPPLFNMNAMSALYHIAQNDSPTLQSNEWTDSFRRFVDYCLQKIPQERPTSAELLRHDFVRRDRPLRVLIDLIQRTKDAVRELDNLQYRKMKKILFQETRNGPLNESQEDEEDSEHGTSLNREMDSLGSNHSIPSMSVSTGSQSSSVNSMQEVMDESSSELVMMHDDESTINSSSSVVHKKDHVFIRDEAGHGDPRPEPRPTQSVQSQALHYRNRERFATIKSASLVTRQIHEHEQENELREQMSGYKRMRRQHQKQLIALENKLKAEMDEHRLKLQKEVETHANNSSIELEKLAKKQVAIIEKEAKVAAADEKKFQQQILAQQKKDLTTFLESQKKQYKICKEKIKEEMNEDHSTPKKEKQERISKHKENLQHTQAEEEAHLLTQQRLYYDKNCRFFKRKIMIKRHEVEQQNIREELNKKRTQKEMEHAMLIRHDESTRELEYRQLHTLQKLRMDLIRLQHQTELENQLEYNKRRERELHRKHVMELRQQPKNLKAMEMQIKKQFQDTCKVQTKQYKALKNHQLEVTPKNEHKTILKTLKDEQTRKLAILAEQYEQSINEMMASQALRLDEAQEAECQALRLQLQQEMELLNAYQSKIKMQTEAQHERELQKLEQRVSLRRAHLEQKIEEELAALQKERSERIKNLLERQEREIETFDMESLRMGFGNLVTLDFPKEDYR

[2] = target: Phosphatidylinositol 4,5-bisphosphate 3-kinase catalytic subunit alpha isoform (Homo sapiens, UniProt P42336); assay: Selectivity interaction (KinomeScan (DiscoverX)) EUB0000306b PIK3CA; details: at 1 µM
Chain of Phosphatidylinositol 4,5-bisphosphate 3-kinase catalytic subunit alpha isoform (P42336 whole entry, canonical isoform): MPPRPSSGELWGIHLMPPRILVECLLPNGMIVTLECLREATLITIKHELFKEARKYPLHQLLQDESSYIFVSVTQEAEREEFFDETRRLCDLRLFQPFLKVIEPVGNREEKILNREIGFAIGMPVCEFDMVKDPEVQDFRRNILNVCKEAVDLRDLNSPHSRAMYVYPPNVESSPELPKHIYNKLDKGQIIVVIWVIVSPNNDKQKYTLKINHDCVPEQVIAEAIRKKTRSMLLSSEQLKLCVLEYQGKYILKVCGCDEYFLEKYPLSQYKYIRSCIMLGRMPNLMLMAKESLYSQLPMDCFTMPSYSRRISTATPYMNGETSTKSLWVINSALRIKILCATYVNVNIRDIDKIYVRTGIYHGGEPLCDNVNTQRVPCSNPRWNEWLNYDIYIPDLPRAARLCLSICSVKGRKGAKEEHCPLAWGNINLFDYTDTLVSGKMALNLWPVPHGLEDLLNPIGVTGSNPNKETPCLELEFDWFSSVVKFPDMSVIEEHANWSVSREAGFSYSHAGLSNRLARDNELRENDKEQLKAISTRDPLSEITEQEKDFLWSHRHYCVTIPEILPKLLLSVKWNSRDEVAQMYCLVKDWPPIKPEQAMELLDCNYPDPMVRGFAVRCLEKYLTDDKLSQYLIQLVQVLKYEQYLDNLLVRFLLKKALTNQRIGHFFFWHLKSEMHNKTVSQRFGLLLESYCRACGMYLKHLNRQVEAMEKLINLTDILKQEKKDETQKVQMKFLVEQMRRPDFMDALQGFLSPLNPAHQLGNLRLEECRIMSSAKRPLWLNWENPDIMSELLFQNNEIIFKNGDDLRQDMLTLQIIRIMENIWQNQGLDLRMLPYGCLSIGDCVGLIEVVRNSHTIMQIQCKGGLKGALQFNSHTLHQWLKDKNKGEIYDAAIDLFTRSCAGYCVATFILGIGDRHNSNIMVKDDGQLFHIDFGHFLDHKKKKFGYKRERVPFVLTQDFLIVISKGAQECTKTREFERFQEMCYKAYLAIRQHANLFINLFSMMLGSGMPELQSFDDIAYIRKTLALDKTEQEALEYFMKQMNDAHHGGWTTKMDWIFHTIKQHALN

[3] = test system: Mast/stem cell growth factor receptor Kit (Homo sapiens), P10721 [L576P]; assay: Selectivity interaction (KinomeScan (DiscoverX)) EUB0000306b KIT; details: at 1 µM
Chain of Mast/stem cell growth factor receptor Kit (Homo sapiens), P10721 [L576P] (P10721 whole entry L576P): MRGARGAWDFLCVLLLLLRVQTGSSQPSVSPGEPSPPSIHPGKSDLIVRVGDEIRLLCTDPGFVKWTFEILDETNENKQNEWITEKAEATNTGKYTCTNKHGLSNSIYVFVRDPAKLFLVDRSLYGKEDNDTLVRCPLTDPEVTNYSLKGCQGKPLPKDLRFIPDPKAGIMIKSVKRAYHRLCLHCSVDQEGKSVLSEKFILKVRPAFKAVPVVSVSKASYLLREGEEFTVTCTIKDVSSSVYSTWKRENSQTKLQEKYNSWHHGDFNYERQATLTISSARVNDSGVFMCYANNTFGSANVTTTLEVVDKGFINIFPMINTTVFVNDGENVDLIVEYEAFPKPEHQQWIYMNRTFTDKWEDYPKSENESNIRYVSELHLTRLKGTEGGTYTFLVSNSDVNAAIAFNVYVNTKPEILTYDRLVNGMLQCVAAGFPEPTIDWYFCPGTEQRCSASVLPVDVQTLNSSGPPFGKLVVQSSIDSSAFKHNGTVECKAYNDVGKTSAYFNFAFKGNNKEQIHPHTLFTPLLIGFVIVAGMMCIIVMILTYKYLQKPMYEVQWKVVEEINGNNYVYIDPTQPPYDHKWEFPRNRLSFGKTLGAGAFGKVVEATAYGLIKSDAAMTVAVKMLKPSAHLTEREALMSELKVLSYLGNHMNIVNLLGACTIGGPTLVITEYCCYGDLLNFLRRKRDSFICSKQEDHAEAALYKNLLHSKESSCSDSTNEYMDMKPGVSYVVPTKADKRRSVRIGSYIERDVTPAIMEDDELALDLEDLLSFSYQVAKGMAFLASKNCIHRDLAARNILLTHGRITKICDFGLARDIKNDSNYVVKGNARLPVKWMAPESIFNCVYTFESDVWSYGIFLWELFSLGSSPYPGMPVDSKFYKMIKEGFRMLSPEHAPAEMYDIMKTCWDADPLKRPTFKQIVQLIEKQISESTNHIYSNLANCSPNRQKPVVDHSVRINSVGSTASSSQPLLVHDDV

[4] = target: T2, Gamma-aminobutyric acid receptor subunit alpha-1 (Homo sapiens, UniProt P14867); assay: Selectivity interaction (GPCR panel (PDSP screen)) EUB0000306b GABRA1
T2 sequence (P14867 whole entry): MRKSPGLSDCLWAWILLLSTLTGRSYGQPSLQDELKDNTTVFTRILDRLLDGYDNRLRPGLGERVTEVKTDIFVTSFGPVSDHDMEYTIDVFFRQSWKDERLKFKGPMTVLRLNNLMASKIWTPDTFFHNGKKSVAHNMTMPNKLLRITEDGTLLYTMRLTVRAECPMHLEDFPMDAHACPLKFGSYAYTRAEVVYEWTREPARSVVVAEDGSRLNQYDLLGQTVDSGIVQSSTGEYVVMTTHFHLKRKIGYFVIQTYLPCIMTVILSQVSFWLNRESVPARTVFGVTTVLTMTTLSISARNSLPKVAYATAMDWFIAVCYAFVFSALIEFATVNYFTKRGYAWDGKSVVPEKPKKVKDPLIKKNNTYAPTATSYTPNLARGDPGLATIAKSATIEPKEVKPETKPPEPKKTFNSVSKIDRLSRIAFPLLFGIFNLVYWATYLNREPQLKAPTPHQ

Mu-type opioid receptor = Mu-type opioid receptor (Homo sapiens, UniProt P35372); assay: Selectivity interaction (CEREP Wide Ligand screening panel (ion channels, receptors, enzymes)) EUB0000304b OPRM1; details: at 10 µM
[5] = target: Substance-P receptor (Homo sapiens) (UniProt P25103); assay: Selectivity interaction (CEREP Wide Ligand screening panel (ion channels, receptors, enzymes)) EUB0000304b TACR1; details: at 10 µM
[6] = target: Muscarinic acetylcholine receptor M3 (Homo sapiens) (UniProt P20309); assay: Selectivity interaction (CEREP Wide Ligand screening panel (ion channels, receptors, enzymes)) EUB0000304b CHRM3; details: at 10 µM
Chain of Muscarinic acetylcholine receptor M3 (Homo sapiens) (P20309 whole entry, looked up): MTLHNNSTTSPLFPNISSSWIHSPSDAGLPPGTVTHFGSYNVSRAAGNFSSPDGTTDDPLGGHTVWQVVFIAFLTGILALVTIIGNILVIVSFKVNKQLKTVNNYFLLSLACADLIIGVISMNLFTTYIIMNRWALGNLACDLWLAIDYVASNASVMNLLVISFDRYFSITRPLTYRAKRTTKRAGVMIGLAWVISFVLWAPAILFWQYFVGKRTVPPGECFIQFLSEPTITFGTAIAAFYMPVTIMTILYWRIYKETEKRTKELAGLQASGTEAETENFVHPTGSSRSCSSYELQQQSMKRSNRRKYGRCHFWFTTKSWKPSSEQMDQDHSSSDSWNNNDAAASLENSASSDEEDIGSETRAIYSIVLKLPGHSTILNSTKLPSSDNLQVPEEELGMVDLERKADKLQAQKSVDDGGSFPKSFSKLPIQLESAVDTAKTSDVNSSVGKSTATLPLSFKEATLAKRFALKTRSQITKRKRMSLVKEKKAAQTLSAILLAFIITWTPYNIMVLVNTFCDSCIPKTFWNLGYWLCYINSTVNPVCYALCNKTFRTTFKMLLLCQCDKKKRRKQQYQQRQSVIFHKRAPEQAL

[7] = target: Melatonin receptor type 1B (Homo sapiens) (UniProt P49286); assay: Selectivity interaction (CEREP Wide Ligand screening panel (ion channels, receptors, enzymes)) EUB0000304b MTNR1B; details: at 10 µM
Chain of Melatonin receptor type 1B (Homo sapiens) (P49286 whole entry): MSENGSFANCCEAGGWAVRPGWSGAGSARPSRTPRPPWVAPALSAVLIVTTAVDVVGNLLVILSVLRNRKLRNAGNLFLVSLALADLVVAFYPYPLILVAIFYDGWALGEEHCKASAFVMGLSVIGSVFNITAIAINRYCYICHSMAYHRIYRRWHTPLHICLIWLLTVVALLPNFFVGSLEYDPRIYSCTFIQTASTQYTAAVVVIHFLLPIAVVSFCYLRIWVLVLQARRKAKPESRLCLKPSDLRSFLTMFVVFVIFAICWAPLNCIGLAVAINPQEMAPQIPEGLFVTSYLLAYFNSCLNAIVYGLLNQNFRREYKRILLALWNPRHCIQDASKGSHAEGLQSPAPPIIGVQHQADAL

[8] = target: T2, Gamma-aminobutyric acid receptor subunit alpha-1; assay: Selectivity interaction (GPCR panel (PDSP screen)) EUB0000304b GABRA1
[9] = target: T3, Prostaglandin G/H synthase 2 (Homo sapiens) (UniProt P35354); assay: Selectivity interaction (CEREP Wide Ligand screening panel (ion channels, receptors, enzymes)) EUB0000304b PTGS2; details: at 10 µM
T3 sequence (whole entry): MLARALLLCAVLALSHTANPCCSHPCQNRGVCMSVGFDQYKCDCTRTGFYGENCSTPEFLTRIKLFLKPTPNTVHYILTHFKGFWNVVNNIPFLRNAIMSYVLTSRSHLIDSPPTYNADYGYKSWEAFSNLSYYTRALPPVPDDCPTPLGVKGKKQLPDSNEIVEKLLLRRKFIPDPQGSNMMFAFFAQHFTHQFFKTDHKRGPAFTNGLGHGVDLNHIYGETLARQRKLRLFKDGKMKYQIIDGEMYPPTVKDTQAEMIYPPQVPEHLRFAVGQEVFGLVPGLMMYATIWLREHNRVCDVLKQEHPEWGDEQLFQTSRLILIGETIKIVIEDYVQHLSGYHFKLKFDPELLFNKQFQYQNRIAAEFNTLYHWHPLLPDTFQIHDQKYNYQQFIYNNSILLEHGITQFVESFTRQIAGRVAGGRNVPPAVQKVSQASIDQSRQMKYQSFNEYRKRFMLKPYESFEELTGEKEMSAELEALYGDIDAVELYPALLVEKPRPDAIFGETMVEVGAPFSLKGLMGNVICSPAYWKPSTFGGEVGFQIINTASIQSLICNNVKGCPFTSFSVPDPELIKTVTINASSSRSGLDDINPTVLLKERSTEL

[10] = target: Sodium channel protein type 2 subunit alpha (Homo sapiens, UniProt Q99250); assay: Selectivity interaction (CEREP Wide Ligand screening panel (ion channels, receptors, enzymes)) EUB0000304b SCN2A; details: at 10 µM
[11] = target: Gastrin/cholecystokinin type B receptor (Homo sapiens) (UniProt P32239); assay: Selectivity interaction (CEREP Wide Ligand screening panel (ion channels, receptors, enzymes)) EUB0000304b CCKBR; details: at 10 µM
Chain of Gastrin/cholecystokinin type B receptor (Homo sapiens) (P32239 whole entry): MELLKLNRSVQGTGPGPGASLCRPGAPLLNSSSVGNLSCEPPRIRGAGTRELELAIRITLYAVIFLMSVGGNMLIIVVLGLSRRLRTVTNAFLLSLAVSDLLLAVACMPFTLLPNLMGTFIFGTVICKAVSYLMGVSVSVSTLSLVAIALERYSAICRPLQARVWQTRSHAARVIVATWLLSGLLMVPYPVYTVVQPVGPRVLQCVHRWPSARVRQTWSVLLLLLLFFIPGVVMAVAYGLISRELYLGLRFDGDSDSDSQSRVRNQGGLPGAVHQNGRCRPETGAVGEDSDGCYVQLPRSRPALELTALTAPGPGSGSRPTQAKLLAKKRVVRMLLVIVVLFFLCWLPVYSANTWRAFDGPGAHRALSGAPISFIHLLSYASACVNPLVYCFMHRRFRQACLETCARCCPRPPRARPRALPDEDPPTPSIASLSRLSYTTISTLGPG

[12] = target: High affinity choline transporter 1 (Homo sapiens) (UniProt Q9GZV3); assay: Selectivity interaction (CEREP Wide Ligand screening panel (ion channels, receptors, enzymes)) EUB0000304b SLC5A7; details: at 10 µM
Chain of High affinity choline transporter 1 (Homo sapiens) (Q9GZV3 whole entry): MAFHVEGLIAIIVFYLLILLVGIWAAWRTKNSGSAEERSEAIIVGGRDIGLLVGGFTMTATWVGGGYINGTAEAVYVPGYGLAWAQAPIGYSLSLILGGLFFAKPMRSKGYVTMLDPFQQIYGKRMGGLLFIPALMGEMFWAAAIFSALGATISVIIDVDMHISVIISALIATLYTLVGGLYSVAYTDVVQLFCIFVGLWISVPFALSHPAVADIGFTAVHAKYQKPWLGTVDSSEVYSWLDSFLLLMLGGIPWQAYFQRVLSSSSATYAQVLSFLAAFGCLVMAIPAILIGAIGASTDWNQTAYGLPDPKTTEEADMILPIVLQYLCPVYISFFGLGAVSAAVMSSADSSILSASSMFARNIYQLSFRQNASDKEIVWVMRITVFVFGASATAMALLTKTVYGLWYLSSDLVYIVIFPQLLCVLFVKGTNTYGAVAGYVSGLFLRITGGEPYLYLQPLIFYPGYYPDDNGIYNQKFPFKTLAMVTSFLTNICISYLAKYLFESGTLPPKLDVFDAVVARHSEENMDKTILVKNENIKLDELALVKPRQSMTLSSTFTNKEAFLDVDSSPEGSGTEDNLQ

[13] = target: 5-hydroxytryptamine receptor 2B (Homo sapiens, UniProt P41595); assay: Selectivity interaction (CEREP Wide Ligand screening panel (ion channels, receptors, enzymes)) EUB0000304b HTR2B; details: at 10 µM
Chain of 5-hydroxytryptamine receptor 2B (P41595 whole entry): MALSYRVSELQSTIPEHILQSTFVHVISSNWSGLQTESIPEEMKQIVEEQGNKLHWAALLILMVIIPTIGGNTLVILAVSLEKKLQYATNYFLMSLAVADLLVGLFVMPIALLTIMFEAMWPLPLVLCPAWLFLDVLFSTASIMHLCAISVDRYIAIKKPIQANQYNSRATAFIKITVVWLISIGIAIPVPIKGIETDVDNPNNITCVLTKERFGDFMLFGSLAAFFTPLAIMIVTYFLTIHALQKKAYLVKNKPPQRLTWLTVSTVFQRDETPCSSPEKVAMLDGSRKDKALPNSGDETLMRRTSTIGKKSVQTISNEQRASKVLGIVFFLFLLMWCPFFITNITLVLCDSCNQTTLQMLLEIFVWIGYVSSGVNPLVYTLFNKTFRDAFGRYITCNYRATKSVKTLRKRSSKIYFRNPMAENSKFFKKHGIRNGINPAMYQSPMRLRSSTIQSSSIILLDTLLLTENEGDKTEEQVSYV

[14] = target: Adenosine receptor A2b (Homo sapiens) (UniProt P29275); assay: Selectivity interaction (CEREP Wide Ligand screening panel (ion channels, receptors, enzymes)) EUB0000304b ADORA2B; details: at 10 µM
[15] = target: Kappa-type opioid receptor (Homo sapiens, UniProt P41145); assay: Selectivity interaction (CEREP Wide Ligand screening panel (ion channels, receptors, enzymes)) EUB0000304b OPRK1; details: at 10 µM
Histamine H4 receptor = Histamine H4 receptor (Homo sapiens, UniProt Q9H3N8); assay: Selectivity interaction (GPCR panel (PDSP screen)) EUB0000342a HRH4
D(1A) dopamine receptor = D(1A) dopamine receptor (Homo sapiens, UniProt P21728); assay: Selectivity interaction (GPCR panel (PDSP screen)) EUB0000342a DRD1
Chain of D(1A) dopamine receptor (P21728 whole entry): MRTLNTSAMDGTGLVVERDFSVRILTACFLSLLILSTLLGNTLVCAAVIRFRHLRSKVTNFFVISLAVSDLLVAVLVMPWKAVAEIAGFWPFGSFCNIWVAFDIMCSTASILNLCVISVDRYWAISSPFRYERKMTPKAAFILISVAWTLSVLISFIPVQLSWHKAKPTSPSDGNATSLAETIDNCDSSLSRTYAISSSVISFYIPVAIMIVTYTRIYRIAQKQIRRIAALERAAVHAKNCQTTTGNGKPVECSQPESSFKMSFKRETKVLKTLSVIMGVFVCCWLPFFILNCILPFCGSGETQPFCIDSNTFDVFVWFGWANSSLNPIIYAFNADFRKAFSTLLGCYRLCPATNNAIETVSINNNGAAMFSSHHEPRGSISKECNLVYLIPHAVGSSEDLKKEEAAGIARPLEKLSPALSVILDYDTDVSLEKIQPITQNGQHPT

% of control [1]: 42% | % of control [2]: 45% | % of control [3]: 0% | pKi [4]: 5.94
Compound: O=C(Nc1cccnn1)N1CCC(=Cc2cccc(Oc3ccc(C(F)(F)F)cn3)c2)CC1

% of effect (Mu-type opioid receptor): 25% | % of effect [5]: 18% | % of effect [6]: 21% | % of effect [7]: 32% | pKi [8]: 5.99 | % of effect [9]: 21% | % of effect [10]: 32% | % of effect [11]: 35% | % of effect [12]: 22% | % of effect [13]: 26% | % of effect [14]: 21% | % of effect [15]: 20%
Compound: C[C@H](c1ccc(F)cc1)N(Cc1cccc(C(=O)O)c1)C(=O)c1cnc2ccccc2c1 [PF-05105679]

pKi (Histamine H4 receptor): < 5.00 | pKi (D(1A) dopamine receptor): < 5.00
Compound: O=C(c1ccc(F)cc1)N1CC(COc2ccc(Br)cc2)(C(=O)O)C1 [PF-04475866]
